Assay results taken from patent US20250177405A1, “METHODS OF TREATING NEUROLOGICAL AND CARDIOVASCULAR CONDITIONS” (ASTROCYTE PHARMACEUTICALS, INC., priority 2021, published 2025).
Read-outs that look alike come from different tables or passages of the source.

Experiments:
A3 receptor in the mouse = target: T1, A3 receptor in the mouse (Mus musculus, UniProt Q61618); assay: affinity at mouse A3 receptor; assay type: binding
T1 sequence (Q61618 1-319): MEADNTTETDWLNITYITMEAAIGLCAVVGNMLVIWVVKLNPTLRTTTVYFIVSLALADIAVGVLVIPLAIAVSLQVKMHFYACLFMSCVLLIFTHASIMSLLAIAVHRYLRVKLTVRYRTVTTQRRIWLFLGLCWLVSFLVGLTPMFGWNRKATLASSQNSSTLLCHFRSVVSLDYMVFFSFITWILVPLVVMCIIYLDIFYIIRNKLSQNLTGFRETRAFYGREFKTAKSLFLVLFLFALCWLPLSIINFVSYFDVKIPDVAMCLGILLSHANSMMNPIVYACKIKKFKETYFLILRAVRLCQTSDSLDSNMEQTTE
Protocol: Similar competition binding assays may be conducted using HEK293 cell membranes expressing mARs using [^125I]I-AB-MECA to label A1 or A3ARs and [^3H]CGS21680 to label A2AARs. IC50 values were converted to Ki values using known methods. Nonspecific binding was determined in the presence of 100 μM NECA.

[1] = system: cynomolgus monkey model of transient middle cerebral artery occlusion (tMCAO); assay: transient middle cerebral artery occlusion (tMCAO) stroke model, MRI lesion and penumbra volume; assay type: in vivo, Macaca fascicularis; conditions: for overall DWI lesion volume smaller compared to vehicle: I-1 composite
From the text: A total of 25 adult male Macaca fascicularis macaques were used in this study, with ages ranging from 47-83 months and weights ranging from 2.7-5.4 kg.
Under deep anesthesia, the right eyeball was removed, and the orbital content was dissected and excised using a surgical microscope (KOM300, Konan Medical Inc., Hogo, Japan). A window of approximately 10 mm in diameter was opened just anterior to the foramen of the optic canal at the base of the skull, allowing identification of the right middle cerebral artery (MCA) main trunk beneath the dura. After opening the dura mater, tMCAO was performed using 2 microvascular clips (Sugita TII, 17-001-81, Mizuho Medical, Tokyo, Japan), one on the proximal part of the main MCA trunk and the other on the distal-to-orbitofrontal brunch. Four hours after tMCAO, these clips were removed. After visual confirmation of recanalization of MCA blood flow, the burr hole was closed using Clearfil New Bond (Kuraray Noritake Dental, Inc., Tokyo, Japan) and the orbital cavity was closed according to best veterinary practice.
Transorbital transient MCA occlusion (tMCAO) was performed using 2 microvascular clips, one placed on the proximal part of the main MCA trunk and the other on the distal-to-orbitofrontal branch (references 10, 11, 24). Four hours after MCA occlusion, these clips were removed for recanalization. After visual confirmation of restituted MCA blood flow, the burr hole was closed using Clearfil New Bond (Kuraray Noritake Dental, Inc., Tokyo, Japan) and the orbital cavity was closed according to best veterinary practice.
Serial coronal magnetic resonance imaging (MRI) of the brain (3 mm slice thickness) was performed 0.5, 1.5, 1.8, 3.5, 6.0, 24 and 120 h post-occlusion. Imaging sequences were (i) diffusion-weighted imaging (DWI), arterial spin labeling (ASL), (ii) magnetic resonance angiography (MRA), and (iii) fluid-attenuated inversion-recovery (FLAIR) T2-weighted imaging. Apparent diffusion coefficient (ADC) maps, cerebral blood flow (CBF), and perfusion deficit were generated with FuncTool Performance (GE Healthcare, Milwaukee, WI, USA) available on the MRI scanner console. Inhibition of lesion volume was considered the primary efficacy endpoint. Penumbral volume (mm^3) was calculated by subtracting the lesion volume delineated from the DWI diffusion maps from the total calculated perfusion deficit.
The infarct (lesion) areas (mm^2) of each coronal image were marked using OsiriX version 8.0.2 (Pixmeo SARL, Bernex, Switzerland). The infarct was manually delineated using DWI maps. The lesion volume (mm^3) was calculated as the sum of the product of each section's infarct area and slice thickness (3 mm). […] The perfusion deficit (mm^3) was calculated from ASL maps as a reduction to <30% and <50% of the corresponding region of the contralateral side. […] Penumbral volume (mm^3) was calculated by subtracting the lesion volume delineated from the DWI diffusion maps from the total calculated perfusion deficit.
Macaques received a bolus dose of vehicle (40% PEG400 in 0.9% saline) or I-1 into a saphenous vein 2 h after occlusion (2 h prior to restoration of MCA blood flow), followed immediately by a 22 h intravenous infusion. This dosing regimen was designed to rapidly achieve and maintain pre-determined plasma and cerebrospinal fluid (CSF) steady-state concentrations of I-1 based on its pharmacokinetics previously determined in näive and MCA occluded macaques (Tables A-C below).

[2] = pharmacokinetics of I-1 after intravenous bolus in normal and tMCAO nonhuman primates; assay type: in vivo, nonhuman primate; conditions: for C0 / clearance / half-life / Vd: monkey, plasma, iv, 0.5 mg/kg, intravenous bolus 0.5 mg/kg; for Vd: read-out: Vdss
brain A1R/A3R = assay: estimated brain receptor occupancy of I-1 in nonhuman primate stroke study; assay type: in vivo
Protocol: Cerebrospinal fluid drug concentration is an established proxy for unbound drug brain concentration that interacts with central receptor targets (references 46, 47). The unbound brain concentrations and resulting brain receptor occupancy at the A1R and A3R can be estimated using receptor affinity data and simple mass action equations (references 48, 49). […] Accordingly, during the 22 h infusion of I-1, sufficient CSF concentrations were available to provide coverage of central A1R and A3R in the macaque.
Receptor occupancy is a mass action relationship:
The percentage of a receptor occupied by an agonist or antagonist is a function of the drug concentration and the drug affinity for the receptor target. The challenge is that drug concentrations at the target site (in this case, brain, and CSF) can vary by species, as can affinity for the drug target. Affinity of I-1 for its receptor target can vary by as much as 5-fold between species. Accordingly, for each species, it is necessary to determine the I-1 affinity for its target as well as the concentration of I-1 at each administered dose in a relevant matrix.
We then proceeded to our key preclinical stroke efficacy model in nonhuman primates. Pre-efficacy pharmacokinetic studies obtained plasma and CSF pharmacokinetic data. […]

Which “difference in affinity between I-1 and Cl-IB-MECA” value (A3 receptor in the mouse) does the source give for `CSc1nc(N)c2ncn([C@H]3C(O)C(O)[C@]4(CO)C[C@H]34)c2n1` (stereo in doubt) [Compound I-1] here?
Its value is “approximately 25,000 fold”.

And the “lesion growth rate (slope of lesion growth) after treatment initiation” value ([1]; 1.8-6.0 h post-occlusion, versus vehicle and pre-treatment, composite p=0.004)?
Its value is “rapid decrease in lesion growth rate”.

What about the “decrease in penumbra volume during the ischemic period” value ([1]; I-1-treated composite (n=16), 0.5 h to 3.5 h post-occlusion, vehicle 71%, p=0.01) of the same molecule?
The value was 48%.

What about the “rate of penumbra volume decrease” value ([1]; I-1-treated composite, vehicle 604.5 mm^3/h) of the same molecule?
The value was 296.0 mm^3/h.

What about the “overall DWI lesion volume smaller compared to vehicle” value ([1]; 24 h post-occlusion, p=0.07) of the same molecule?
Its value is 20%.

And the “overall DWI lesion volume smaller compared to vehicle” value ([1]; 120 h post-occlusion, p=0.05)?
The value was 30%.

And the “I-1 plasma concentrations after single intravenous bolus” value ([2]; 8 h post-dose)?
The value was “below bioanalytical limits of quantitation”.

And the C0 ([2]; Normal NHP (n = 3))?
Its C0 is 329 ng/mL.

What about the clearance ([2]; Normal NHP (n = 3)) of the same molecule?
Its clearance is 29 mL/min/kg.

What about the half-life ([2]; Normal NHP (n = 3)) of the same molecule?
The half-life was 1.3 h.

What about the Vd ([2]; Normal NHP (n = 3)) of the same molecule?
Its Vd is 3.1 L/kg.

And the C0 ([2]; tMCAO NHP (n = 1))?
Its C0 is 544 ng/mL.

And the clearance ([2]; tMCAO NHP (n = 1))?
The clearance was 28 mL/min/kg.

And the half-life ([2]; tMCAO NHP (n = 1))?
The half-life was 1.5 h.

What about the Vd ([2]; tMCAO NHP (n = 1)) of the same molecule?
Its Vd is 3 L/kg.

What about the “estimated receptor occupancy associated with significant efficacy” value (brain A1R/A3R; NHP stroke study, Low, Mid, High Doses) of the same molecule?
Its value is 1-15%.

And the “estimated receptor occupancy at which efficacy started” value (brain A1R/A3R; monkey)?
The value was roughly 34%.
